From patent US20100041712A1, “SUBSTITUTED IMIDAZOLE COMBINATIONS” (PFIZER INC., priority 2008, published 2010)

System: Ctenocephalides felis
Test: In-vivo study: topical spot-on formulations on beagle dogs infested with fleas on Day 30
Details: compound alone, 30 mg/kg topical, Day 30 infestation (Table 1)
Procedure: In-vivo studies were conducted in compliance with International Cooperation on Harmonisation of Technical Requirements for Registration of Veterinary Products (VICH) and Good Clinical Practice (GCP) principles and practices.
In one in-vivo study, topical spot-on formulations were prepared using dipropylene glycol monomethyl ether (DPGMME) and ethanol (80:20% v/v) and butylated hydroxyl anisol (BHA) 0.1% w/v. Control was vehicle. Treatment T02 was 30 mg/kg (150 mg/mL) compound (1A1); T03 was 20 mg/kg (100 mg/mL) compound (1A1), 6.7 mg/kg (33.5 mg/mL) fipronil, and 6 mg/kg (30 mg/mL) s-methoprene; T04 was 30 mg/kg (150 mg/mL) compound (1A1), 6.7 mg/kg (50.4 mg/mL) fipronil, and 6 mg/kg (45 mg/mL) s-methoprene; and T05 was 30 mg/kg (150 mg/mL) compound (1A1), 6.7 mg/kg (33.5 mg/mL) fipronil and 6 mg/kg (30 mg/mL) s-methoprene. A total of 40 beagle dogs (8 dogs/treatment group) were used. Dogs were individually housed. Treatments were administered on Day 0. On Day 30, dogs were infested with 100 Ctenocephalides felis unfed adult fleas. Dead and non-moving fleas were counted at 24 and 48 hours after infestation (Table 1).

With `Cc1cccc([C@H](C)c2ncc[nH]2)c1C` [compound (1A1), 2-[(1S)-1-(2,3-dimethylphenyl)ethyl]-1H-imidazole] the intrinsic flea activity was “lacks intrinsic flea activity”.
